Measurements: US10207984B2, “Cyclopropyl derivatives and methods of use” (Emory University, priority 2011, dated 2019)
Where a name gives a salt, the structure may show the parent alone. Read-outs that look alike come from different tables or passages of the source.

How the values were obtained:
[1] = Log-P (Table 1); format: physicochemical
[2] = biological target: T1, 5-HT transport (SERT) sites (Rattus norvegicus, UniProt P31652); assay: SERT binding, displacement of [3H]citalopram in rat frontal cortex membranes
T1 construct: Tissue is obtained from frozen rat brains as described above; from tissue; host or cells: rat frontal cortex membranes (frozen rat brains)
T1 sequence (P31652 whole entry): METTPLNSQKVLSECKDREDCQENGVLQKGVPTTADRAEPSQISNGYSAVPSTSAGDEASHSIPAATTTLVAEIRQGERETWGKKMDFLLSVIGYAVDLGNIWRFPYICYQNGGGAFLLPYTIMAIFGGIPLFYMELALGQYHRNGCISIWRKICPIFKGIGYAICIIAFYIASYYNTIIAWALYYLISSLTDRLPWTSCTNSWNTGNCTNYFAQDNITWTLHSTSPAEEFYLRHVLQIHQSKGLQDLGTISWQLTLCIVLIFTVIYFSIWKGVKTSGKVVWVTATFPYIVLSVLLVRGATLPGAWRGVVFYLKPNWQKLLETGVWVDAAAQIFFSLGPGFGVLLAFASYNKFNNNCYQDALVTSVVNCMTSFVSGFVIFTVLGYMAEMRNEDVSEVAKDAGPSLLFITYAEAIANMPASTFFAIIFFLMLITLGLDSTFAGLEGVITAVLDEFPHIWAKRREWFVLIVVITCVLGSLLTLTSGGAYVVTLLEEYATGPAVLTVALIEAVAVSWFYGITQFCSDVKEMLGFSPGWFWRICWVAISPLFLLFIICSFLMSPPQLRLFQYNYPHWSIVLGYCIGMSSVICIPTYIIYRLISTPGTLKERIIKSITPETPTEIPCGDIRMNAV
Description: Affinities of analogs at 5-HT transport (SERT) sites are determined by displacement of [^3H] citalopram binding in membranes from rat frontal cortex. […] Assay tubes contain 50 mg (original wet weight) of membranes, 0.4 nM [^3H]citalopram, and various concentrations of unlabeled drugs dissolved in citalopram assay buffer in a final volume of 2 ml. Tubes are incubated for 60 min at 25° C., and the reaction is terminated by rapid filtration with 3×4 mL of cold Tris buffer through Whatman GF/B glass fiber filters pre-soaked in Tris buffer containing 0.1% BSA for at least 1 h. Non-specific binding is determined in the presence of 10 μM fluoxetine.
(§1) Binding of analogs at norepinephrine transporters (NET) was determined by displacement of [^3H]nisoxetine binding. […] The membranes are resuspended in nisoxetine assay buffer (300 mM NaCl, 5 mM KCl, 50 mM Tris-HCl, pH 7.4) and centrifuged again before final resuspension in volumes of buffer. Assay tubes contain 750 μl of brain membranes, [^3H]nisoxetine (0.7 nM) together with unlabeled drugs dissolved in nisoxetine assay buffer to a final volume of 1 ml. Tubes are incubated for 40 min at 25° C., and the reaction is terminated by rapid filtration with 3×4 mL of cold Tris buffer through Whatman GF/B glass fiber filters which have been pre-soaked in Tris buffer containing 0.1% BSA for at least 1 h. Non-specific binding is determined in the presence of 1 μM desipramine. In [^3H]citalopram and [^3H]nisoxetine binding assays, radioactivity is determined by liquid scintillation spectrophotometry (efficiency: 50%) after eluting filters overnight in 5 mL of Ecolite scintillation fluid (ICN). IC50 values are calculated from displacement curves using 7-10 concentrations of unlabeled analogs. […] For [^3H]paroxetine and [^3H]nisoxetine binding assays, Ki values are calculated using the Cheng-Prusoff equation.

[3] = biological target: T2, norepinephrine transporters (NET) (Rattus norvegicus, UniProt Q9WTR4); assay: NET binding, displacement of [3H]nisoxetine in rat brain membranes
T2 construct: Whole rat brains (minus cerebellum) are homogenized; from tissue; host or cells: rat whole brain minus cerebellum, membranes
T2 sequence (Q9WTR4 1-597): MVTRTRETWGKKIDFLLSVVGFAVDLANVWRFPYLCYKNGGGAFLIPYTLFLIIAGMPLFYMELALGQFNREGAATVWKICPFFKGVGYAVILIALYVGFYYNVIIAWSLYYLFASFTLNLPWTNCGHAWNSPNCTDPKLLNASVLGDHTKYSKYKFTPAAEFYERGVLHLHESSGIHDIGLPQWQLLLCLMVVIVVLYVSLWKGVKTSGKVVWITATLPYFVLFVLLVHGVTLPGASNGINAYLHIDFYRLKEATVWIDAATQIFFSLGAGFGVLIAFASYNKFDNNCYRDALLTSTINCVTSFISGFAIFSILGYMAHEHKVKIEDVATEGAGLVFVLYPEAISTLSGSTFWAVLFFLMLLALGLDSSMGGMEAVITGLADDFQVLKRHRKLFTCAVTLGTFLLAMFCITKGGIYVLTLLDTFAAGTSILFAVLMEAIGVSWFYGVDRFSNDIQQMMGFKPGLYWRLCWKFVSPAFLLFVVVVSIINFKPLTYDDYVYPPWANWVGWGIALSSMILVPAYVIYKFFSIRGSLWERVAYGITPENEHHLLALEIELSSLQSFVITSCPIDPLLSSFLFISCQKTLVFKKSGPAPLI
Description: as §1

[4] = biological target: T3, dopamine transport (DAT) sites (Rattus norvegicus, UniProt P23977); assay: DAT binding, displacement of [125I]RTI-55 in rat striatum membranes
T3 construct: from tissue; host or cells: Sprague-Dawley rat striatum membranes
T3 sequence (P23977 whole entry): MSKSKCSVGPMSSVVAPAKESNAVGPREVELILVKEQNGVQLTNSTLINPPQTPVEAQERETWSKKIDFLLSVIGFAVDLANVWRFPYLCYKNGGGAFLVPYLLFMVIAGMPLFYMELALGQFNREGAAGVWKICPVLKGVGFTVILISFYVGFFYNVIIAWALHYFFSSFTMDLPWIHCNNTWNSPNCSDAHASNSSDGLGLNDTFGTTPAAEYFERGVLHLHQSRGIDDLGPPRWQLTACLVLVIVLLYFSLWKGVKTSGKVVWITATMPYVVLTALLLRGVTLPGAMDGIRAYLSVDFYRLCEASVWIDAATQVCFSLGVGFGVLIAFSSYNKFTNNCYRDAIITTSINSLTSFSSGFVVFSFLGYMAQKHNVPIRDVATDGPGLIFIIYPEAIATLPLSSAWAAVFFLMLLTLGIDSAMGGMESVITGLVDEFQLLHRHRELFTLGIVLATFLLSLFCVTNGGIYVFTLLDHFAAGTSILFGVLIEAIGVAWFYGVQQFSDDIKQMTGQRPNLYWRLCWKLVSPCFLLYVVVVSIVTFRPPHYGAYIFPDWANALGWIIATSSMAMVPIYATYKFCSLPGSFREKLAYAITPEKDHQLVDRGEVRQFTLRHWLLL
Description: Frozen brains from Sprague-Dawley rats are obtained commercially and striata are dissected on ice. […] Tubes are incubated for 50 min at 25° C., and the reaction is terminated by rapid filtration with 3-5 ml of cold Tris buffer through Whatman GF/B glass fiber filters pre-soaked in Tris buffer containing 0.1% BSA for at least 1 h. Non-specific binding is determined in the presence of 1 μMWF-23. […]

[5] = system: SNL rats; assay: Mechanical allodynia (paw withdrawal threshold) in L5/L6 spinal nerve ligation (SNL) model of neuropathic pain; format: in vivo, rat; settings: for anti-allodynic effect (in words): i.t., clonidine 10 μg, HD-283 30 μg, HD-286 and HD-288 up to 3 μg
Source text: A 3 cm incision was made in the back using the iliac crests as a midpoint. An incision was then made in the underlying muscle, which was then separated by both sharp and blunt dissection to expose the left transverse process of the fifth lumbar vertebra. The transverse process was removed using bone microrongeurs, and the fifth lumbar nerve was exteriorized from underneath the spinal column using a small metal hook and ligated using 4.0 silk suture with sufficient pressure to cause the nerve to bulge on each side of the ligature. The sixth lumbar nerve was exteriorized from underneath the iliac bone at the sciatic notch and ligated in a similar manner. All muscle layers were sutured using 4.0 chromic gut, the skin was sutured using 4.0 nylon suture.
The animal is placed in a stereotaxic frame to immobilize the head under pentobarbital anesthesia. The animal's body is lifted and supported to render the spinal column straight and level and the animal's head is placed downward such the top of the skull forms a 90° angle with the spinal column. A small incision is placed at the back of the neck and the underlying muscles are blunt dissected to reveal the atlanto-occipital membrane. A small incision is placed in the atlanto-occipital membrane through which a 32 ga polyethylene catheter is inserted that is 8 cm in length. The catheter is anchored to the neck muscles with 4.0 silk suture and the exterior wounds are closed with 4.0 nylon suture.
All compounds were dissolved in 0.9% (wt/vol) saline, pH 7.4 and administered through the intrathecal catheter in a volume of 5 μl, followed by 15 μl of 0.9% saline to flush the catheter.
Paw withdrawal threshold was determined before and at selected time points following intrathecal drug administration using calibrated von Frey filaments. The animals are placed in elevated Plexiglas chambers with wire mesh floors and acclimated for a minimum of 30 minutes. Beginning with a filament calibrated to bend with a force of 2 g of pressure, the filament is applied to the plantar surface of the left hindpaw with sufficient force to bend slightly and left in place for 8 seconds or until the animal withdraws it's paw from the filament. In the absence of a paw withdrawal, the next highest calibrated filament is applied in a similar manner. In the presence of a paw withdrawal, the next lowest calibrated filament is applied. This up-down method continues until 4 responses are recorded after an initial positive response. The paw withdrawal threshold is calculated using Dixon non-parametric statistics.
The potency and efficacy of novel SNRT analogs in reversing mechanical hypersensitivity were determined in the L5/L6 spinal nerve ligation (SNL) model of neuropathic pain in rats. Compounds were administered intrathecal (i.t.) and the effect on paw withdrawal threshold was assessed at various time points following treatment.

[6] = [3H]citalopram displacement, rat frontal cortex membranes, Ki by Cheng-Prusoff, read-out: SERT
[7] = [3H]nisoxetine displacement, rat brain membranes, Ki by Cheng-Prusoff, read-out: NET
[8] = [125I]RTI-55 displacement, rat striatum membranes, reported as IC50, read-out: DAT

CNC[C@H]1C[C@@]1(C(=O)OC)c1ccc(Br)c(Br)c1 [HD-328, (1S,2S)-methyl 1-(3,4-dibromophenyl)-2-((methylamino)methyl)cyclopropanecarboxylate]
Log-P [1]: 3.17
Ki [2, 6]: 18.4 ± 2.5 nM
Ki [3, 7]: 4.57 ± 0.66 nM
IC50 [4, 8]: 87.9 ± 9.5 nM

CNC[C@H]1C[C@@]1(C(=O)OC)c1ccc2ccccc2c1 [HD-330, (1S,2S)-methyl 2-((methylamino)methyl)-1-(naphthalen-2-yl)cyclopropanecarboxylate]
Log-P [1]: 2.82
Ki [2]: 27 ± 3.4 nM
Ki [3, 7]: 16.4 ± 0.52 nM
IC50 [4, 8]: 313 ± 55 nM

CNCC1CC1(C(=O)OC)c1ccc(Cl)c(Cl)c1 (racemic) [HD-288, Methyl 1-(3,4-dichlorophenyl)-2-((methylamino)methyl)cyclopropanecarboxylate]
Log-P [1]: 2.95
PWT after treatment ([5]; 3 μg i.t.): 24.9 ± 2.5 g
PWT before treatment (baseline) ([5]; before i.t. drug): 2.9 ± 0.4 g
anti-allodynic A50 ([5]; i.t. administration): 0.6 ± 0.3 µg
anti-allodynic effect (in words) [5]: significantly greater than clonidine
Ki [2, 6]: 5.6 ± 0.39 nM
Ki [3, 7]: 0.8 ± 0.02 nM

CNCC1CC1(C(=O)OC)c1ccc(-c2ccccc2)cc1 (racemic) [HD-286, Methyl 1-([1,1′-biphenyl]-4-yl)-2-((methylamino)methyl)cyclopropanecarboxylate hydrochloride]
Log-P [1]: 3.54
anti-allodynic effect (in words) [5]: significantly lower efficacy
Ki [2, 6]: 4.85 ± 1 nM
Ki [3, 7]: 315 ± 100 nM

CNCC1CC1(C(=O)OC)c1ccc(OC)c(OC)c1 (racemic) [HD-289, Methyl 1-(3,4-dimethoxyphenyl)-2-((methylamino)methyl)cyclopropanecarboxylate hydrochloride]
Log-P [1]: 1.31
Ki [2, 6]: 106 ± 21 nM
Ki [3, 7]: 8.62 ± 0.71 nM
IC50 [4, 8]: 1360 ± 198 nM

CNCC1CC1(C(=O)OC)c1ccc2ccccc2c1 (racemic) [HD-287, Methyl 2-((methylamino)methyl)-1-(naphthalen-2-yl)cyclopropanecarboxylate hydrochloride]
Log-P [1]: 2.82
Ki [2]: 6.58 ± 0.71 nM
Ki [3, 7]: 3.49 ± 0.64 nM
IC50 [4]: 177 ± 44 nM

CNC[C@@H]1C[C@]1(C(=O)OC)c1ccc(Br)cc1 [HD-325, (1R,2R)-methyl 1-(4-bromophenyl)-2-((methylamino)methyl)cyclopropanecarboxylate]
Log-P [1]: 2.51
Ki [2, 6]: 47 ± 2.9 nM
Ki [3, 7]: 2.49 ± 0.07 nM
IC50 [4, 8]: 333 ± 79 nM

CNCC1CC1(C(=O)OC)c1ccccc1 (racemic) [HD-284, Methyl 2-((methylamino)methyl)-1-phenylcyclopropanecarboxylate]
Log-P [1]: 1.65
Ki [2, 6]: 157 ± 4.8 nM
Ki [3, 7]: 152 ± 65 nM
IC50 [4, 8]: 1780 ± 87 nM

CNC[C@@H]1C[C@]1(C(=O)OC)c1ccc2ccccc2c1 [HD-331, (1R,2R)-methyl 2-((methylamino)methyl)-1-(naphthalen-2-yl)cyclopropanecarboxylate]
Log-P [1]: 2.82
Ki [2]: 15 ± 2.8 nM
Ki [3, 7]: 10.4 ± 0.89 nM
IC50 [4, 8]: 320 ± 51 nM

CNC[C@H]1C[C@@]1(C(=O)OC)c1ccc(Br)cc1 [HD-324, (1S,2S)-methyl 1-(4-bromophenyl)-2-((methylamino)methyl)cyclopropanecarboxylate]
Log-P [1]: 2.51
Ki [2, 6]: 946 ± 71 nM
Ki [3, 7]: 44.9 ± 1 nM
IC50 [4, 8]: > 10000 nM

CNC[C@@H]1C[C@]1(C(=O)OC)c1ccc(Cl)c(Cl)c1 [HD-327, (1R,2R)-methyl 1-(3,4-dichlorophenyl)-2-((methylamino)methyl)cyclopropanecarboxylate]
Log-P [1]: 2.95
Ki [2, 6]: 2.42 ± 0.31 nM
Ki [3, 7]: 0.31 ± 0.01 nM

CNCC1CC1(C(=O)OC)c1ccccc1Cl (racemic) [HD-290, Methyl 1-(2-chlorophenyl)-2-((methylamino)methyl)cyclopropanecarboxylate]
Log-P [1]: 2.36
Ki [2, 6]: 329 ± 54 nM
Ki [3, 7]: 289 ± 24 nM
IC50 [4, 8]: 1840 ± 350 nM

CNC[C@H]1C[C@@]1(C(=O)OC)c1ccc(Cl)c(Cl)c1 [HD-326, (1S,2S)-methyl 1-(3,4-dichlorophenyl)-2-((methylamino)methyl)cyclopropanecarboxylate]
Log-P [1]: 2.95
Ki [2, 6]: 40.5 ± 4.3 nM
Ki [3, 7]: 8.11 ± 0.8 nM

CNC[C@@H]1C[C@]1(C(=O)OC)c1ccc(Br)c(Br)c1 [HD-329, (1R,2R)-methyl 1-(3,4-dibromophenyl)-2-((methylamino)methyl)cyclopropanecarboxylate]
Log-P [1]: 3.17
Ki [2, 6]: 1.71 ± 0.05 nM
Ki [3, 7]: 0.62 ± 0.12 nM
IC50 [4, 8]: 35.2 ± 4.6 nM

CCN(CC)C(=O)C1(c2ccccc2)CC1CN (centres unmarked) [HD-283, Milnacipran, reference compound]
Log-P [1]: 1.91
anti-allodynic effect (in words) [5]: reversed mechanical allodynia
Ki [2]: 35.1 ± 4.4 nM
Ki [3]: 23.8 ± 1.7 nM
transporter selectivity (in words) ([3]; NET versus SERT binding): non-selective
IC50 [4]: 1970 ± 230 nM

CNCC1CC1(C(=O)OC)c1ccc(Br)cc1 (racemic) [HD-285, Methyl 1-(4-bromophenyl)-2-((methylamino)methyl)cyclopropanecarboxylate]
Log-P [1]: 2.51
Ki [2, 6]: 210 ± 10 nM
Ki [3, 7]: 3.7 ± 1.4 nM
IC50 [4, 8]: 1460 ± 470 nM

CNC[C@@H]1C[C@]1(C(=O)OC)c1ccc(-c2ccccc2)cc1 [HD-333, (1R,2R)-methyl 1-([1,1′-biphenyl]-4-yl)-2-((methylamino)methyl)cyclopropanecarboxylate]
Log-P [1]: 3.54
Ki [2, 6]: 2.69 ± 0.62 nM
Ki [3, 7]: 86.6 ± 19 nM

Clc1cccc(Cl)c1N=C1NCCN1 [Clonidine, clonidine, reference compound]
anti-allodynic effect (in words) [5]: reversed mechanical allodynia

CNC[C@H]1C[C@@]1(C(=O)OC)c1ccc(-c2ccccc2)cc1 [HD-332, (1S,2S)-methyl 1-([1,1′-biphenyl]-4-yl)-2-((methylamino)methyl)cyclopropanecarboxylate]
Log-P [1]: 3.54
Ki [2, 6]: 79.8 ± 21 nM
Ki [3, 7]: > 10000 nM
